pEC50: −log10 of the molar value. ≈ marks a conversion by molar mass, not a printed value. Like-named read-outs stand apart in the source and are kept apart here.
Experiments:
[1] = critical micelle concentration in PBS by molar absorptivity at 409 nm; type: physicochemical; details: PBS (pH 7.4), 37° C.
Excerpt: In its monomeric state, Amphotericin B has a characteristic absorption band at 409 nm; upon aggregation, however, its apparent molar absorptivity decreases in magnitude [see Biochemistry 30:5707 (1991)]. Thus, by measuring its molar absorptivity as a function of the reciprocal of the macrolide concentration, one can estimate the critical micelle concentration. This can be shown mathematically by allowing T, m and P to represent the total, monomeric, and micellar concentrations (i.e. the concentration of the drug that is present in micellar form) of the macrolide, respectively, and if ε represents the apparent molar absorptivity and εm and εp are the molar absorptivity for the monomeric and micellar components, respectively, then it can be shown that ε=εp +(εm -εp)m/T. At concentrations in excess of the critical micelle concentration, m is a constant and ε is inversely proportional to T.
Using the method described previously, the critical micelle concentrations for Amphotericin B and the conjugates described in the preceding examples were determined and are reported in Table I describing the aggregation, antifungal and hemolytic properties of […] macrolide antibiotics (in μM amounts) according to the present invention.
^a critical micelle concentration was determined in PBS (pH 7.4) at […]

Candida albicans [2] = experiment: minimum inhibitory concentration, Candida albicans, broth microdilution; type: cell-based; details: 24 h, 37° C.
Procedure: ^c minimum inhibitory concentration (see Example IV); three different
strains of Candida albicans were tested; all tests were done in broth
microdilution in yeast nitrogen baseglucose at 37° C. for 24 hours
the initial inoculum was 1 × 10^4 blastospores per ml
The minimum inhibitory concentration reported in Table I was obtained, and further confirmed as reported in Table II, by the methods described in the following Example IV.
(§1) Microorganism inocula was harvested from one to five day old cultures grown on Sabourand's dextrose agar. After two washes with sterile saline, the inocula were counted utilizing a hemacytometer and diluted or concentrated as required to 1×10^4 blastospores per ml. Sterile molten agar (at 50° C.) was inoculated, allowed to cool, and 10 mm diameter discs impregnated (from […] stock solutions) with each of the test compounds was placed on the surface of the agar. Zones of inhibition were measured after incubating the plates at 30° C. for 24-48 hours.
(§2) The compounds were then screened against three strains of three species of microorganisms: Candida albicans, Cryptococcus neoformans, and Aspergillus fumigatus using a conventional double dilution technique. All tests reported in Table II were done by broth microdilution in yeast nitrogen base-glucose using an inoculum of 1×10^4 blastospores per ml; the cultures were incubated at 37° C. for 24 hours, and the minimum concentration (in μg/ml) that prevents visible growth was recorded as the minimum inhibitory concentration.

Cryptococcus neoformans = experiment: minimum inhibitory concentration, Cryptococcus neoformans, broth microdilution; type: cell-based; details: 24 h
Procedure: as §1, §2

Aspergillus fumigatus = experiment: minimum inhibitory concentration, Aspergillus fumigatus, broth microdilution; type: cell-based; details: 24 h, 37° C.
Procedure: as §1, §2

Candida albicans [3] = experiment: K+ release from fungal cells; type: cell-based; details: 3×10^7 fungal cells/ml, read-out: concentration for releasing 50% of the K+ from fungal cells
solubility in water = type: physicochemical
in vitro = details: human, red blood cells
[4] = tested on: Candida albicans (isolate NIH A); experiment: survival of mice infected with Candida albicans (Example V); type: in vivo, Candida albicans in ICR mice; details: i.p. once per day for ten days, Example II 30 mg/kg, Amphotericin B 1 mg/kg
Excerpt: Ten immunocompetent ICR mice weighing 30 g each in three groups were inoculated intravenously with 3.2×10^6 colony forming units of Candida albicans (isolate NIH A) per mouse.

[5] = in solution; literature; cited from earlier work
[6] = tested on: Histoplasma capsulatum, Cryptococcus neoformans, and several species of Candida, including C. glabrata and C. albicans; details: cited from earlier work
human red blood cells = experiment: hemolysis, 50% release of hemoglobin from human red blood cells; details: hemoglobin release from human red blood cells
fungal organisms = details: compared with Amphotericin B; cited from earlier work
mammalian cells = details: compared with Amphotericin B; cited from earlier work
[7] = C. albicans (1), read-out: minimum inhibitory concentration
[8] = C. albicans (2), read-out: minimum inhibitory concentration
[9] = C. albicans (3), read-out: minimum inhibitory concentration
[10] = three strains of Candida albicans, yeast nitrogen base-glucose, 1 × 10^4 blastospores per ml, read-out: MIC (minimum inhibitory concentration)
[11] = C. neoformans (1), 37° C., read-out: minimum inhibitory concentration
[12] = C. neoformans (2), 37° C., read-out: minimum inhibitory concentration
[13] = read-out: minimum inhibitory concentration, C. neofornams (3), 37° C.

| Structure (SMILES) | cmc (critical micelle concentration) [1] [µM] | MIC (Candida albicans [2]; [7]) [µg/mL] | MIC (Candida albicans [2]; [8]) [µg/mL] | MIC (Candida albicans [2]; [9]) [µg/mL] | MIC (Candida albicans [2]; [10]) [µM] | MIC (Cryptococcus neoformans; [11]) [µg/mL] | MIC (Cryptococcus neoformans; [12]) [µg/mL] | MIC (Cryptococcus neoformans; [13]) [µg/mL] | MIC (Aspergillus fumigatus; A. fumigatus (1)) [µg/mL] | MIC (Aspergillus fumigatus; A. fumigatus (2)) [µg/mL] | MIC (Aspergillus fumigatus; A. fumigatus (3)) [µg/mL] | pEC50 (Candida albicans [3]) | HC50 at 1 h (in vitro) [µM] | other results |
| --- | --- | --- | --- | --- | --- | --- | --- | --- | --- | --- | --- | --- | --- | --- |
| COCCNC(=O)[C@H]1[C@@H]2C[C@@H](O[C@@H]3O[C@H](C)[C@@H](O)[C@H](N)[C@@H]3O)/C=C/C=C/C=C/C=C/C=C/C=C/C=C/[C@H](C)[C@@H](O)[C@@H](C)[C@H](C)OC(=O)C[C@H](O)C[C@H](O)CC[C@@H](O)[C@H](O)C[C@H](O)C[C@](O)(C[C@@H]1O)O2 [Example I] | 4.4 | 1.6 | 1.6 | 1.6 | 1.6 | 1.6 (≈ 1.63 µM) | 3.2 (≈ 3.26 µM) | 0.8 (≈ 0.815 µM) | 3.2 (≈ 3.26 µM) | 3.2 (≈ 3.26 µM) | 1.6 (≈ 1.63 µM) | 6.10 | 7.9 | solubility (solubility in water): < 10 µg/mL |
| C[C@@H]1[C@H](O)[C@@H](C)/C=C/C=C/C=C/C=C/C=C/C=C/C=C/[C@H](O[C@@H]2O[C@H](C)[C@@H](O)[C@H](N)[C@@H]2O)C[C@@H]2O[C@](O)(C[C@@H](O)C[C@@H](O)[C@H](O)CC[C@@H](O)C[C@@H](O)CC(=O)O[C@H]1C)C[C@H](O)[C@H]2C(=O)O [Amphotericin B, reference compound] | 1.1 | 1.6 | 1.6 | 1.6 | 1.7 | 0.8 (≈ 0.866 µM) | 0.8 (≈ 0.866 µM) | 0.8 (≈ 0.866 µM) | 0.8 (≈ 0.866 µM) | 1.6 (≈ 1.73 µM) | 0.8 (≈ 0.866 µM) | 7.00 | 1.8 | solubility in water (solubility in water; similar to Example I product (<10 μg/ml)): low solubility; percent survival ([4]; day 2 post-infection): 100%; percent survival ([4]; day 3 post-infection): 100%; percent survival ([4]; day 4 post-infection): 100%; percent survival ([4]; day 5 post-infection): 100%; percent survival ([4]; day 6 post-infection): 100%; percent survival ([4]; day 7 post-infection): 90%; percent survival ([4]; day 30 post-infection): 90%; critical micelle concentration [5]: very low critical micelle concentration; sensitivity to Amphotericin B in vitro [6]: 0.03 to 1.0 µg/mL; concentration needed for hemolysis relative to critical micelle concentration (human red blood cells): must be greater than their critical micelle concentration |
| C[C@@H]1[C@H](O)[C@@H](C)/C=C/C=C/CC/C=C/C=C/C=C/C=C/C(O[C@H]2O[C@H](C)[C@@H](O)[C@H](N)[C@@H]2O)CC2O[C@](O)(CC(O)C(O)CCC(O)CC(O)CC(O)CC(=O)O[C@H]1C)CC(O)C2C(=O)O (stereo partly shown) [Nystatin] | – | – | – | – | – | – | – | – | – | – | – | – | – | potency against fungal organisms (fungal organisms): somewhat lower in potency against fungal organisms as compared with Amphotericin B; toxicity toward mammalian cells (mammalian cells): may be far less toxic toward mammalian cells |

— US5606038A, “Amphiphilic polyene macrolide antibiotic compounds” (Competitive Technologies, Inc., priority 1995, dated 1997)
